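Values below derive from 48-hour exposures of cells grown in 96-well plates, with endpoints linearly interpolated between the two concentrations bracketing the appropriate inhibition level. Abbreviation: GI50, concentration required for 50% inhibition of growth.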 The source made the active and inactive calls. Cut-off read from the data, not from the text of the source: active = GI50 up to about 1.1 µM and inactive = higher.
Tests used:
Experiment in all cases: growth of human tumour cells (NCI), 48 h
[1] = test system: NCI-H522
[2] = test system: OVCAR-8
[3] = test system: SF-295
[4] = test system: LOX IMVI
[5] = test system: SR
[6] = test system: KM12
[7] = test system: MDA-N
[8] = test system: OVCAR-5
[9] = test system: 786-0
[10] = test system: HCC 2998
[11] = test system: T47D
[12] = test system: SK-OV-3
[13] = test system: NCI-H23
[14] = test system: U-251
[15] = test system: NCI-H226
[16] = test system: ACHN
[17] = test system: HOP-62
[18] = test system: A498
[19] = test system: A549
[20] = test system: NCI/ADR-RES

Measured: GI50

CCCCCCCCCCCCNC(=O)NCC(OCC)OCC
inactive: [1] > 10 µM | [2] > 10 µM | [3] > 10 µM | [4] > 10 µM | [5] > 10 µM | [6] > 10 µM | [7] > 10 µM | [8] > 10 µM | [9] > 10 µM | [10] > 10 µM | [11] > 10 µM | [12] > 10 µM | [13] > 10 µM | [14] > 10 µM | [15] > 10 µM | [16] > 10 µM | [17] > 10 µM | [18] > 10 µM | [19] > 10 µM

CC(C)CC1N=C(OCc2ccccc2)OC1=O (configuration not stated)
inactive: [1] > 100 µM | [2] > 100 µM | [3] > 100 µM | [4] > 100 µM | [20] > 100 µM | [6] > 100 µM | [7] > 100 µM | [8] > 100 µM | [9] > 100 µM | [11] > 100 µM | [12] > 100 µM | [13] > 100 µM | [14] > 100 µM | [15] > 100 µM | [16] > 100 µM | [17] > 100 µM | [18] > 100 µM | [19] > 100 µM

NC(=O)CC(Nc1ncc2c(n1)-c1ccccc1OC2)C(=O)O (configuration not stated)
inactive: [1] > 100 µM | [2] > 100 µM | [3] > 100 µM | [4] > 100 µM | [20] > 100 µM | [5] > 100 µM | [6] > 100 µM | [7] > 100 µM | [8] > 100 µM | [9] > 100 µM | [12] > 100 µM | [13] > 100 µM | [14] > 100 µM | [15] 71.1 µM | [16] > 100 µM | [17] > 100 µM | [19] > 100 µM

Cn1cc(C=C(C#N)C#N)c(=O)n(C)c1=O
inactive: [1] 37.6 µM | [2] > 100 µM | [3] > 100 µM | [4] > 100 µM | [20] > 100 µM | [6] > 100 µM | [7] > 100 µM | [8] > 100 µM | [9] > 100 µM | [11] > 100 µM | [12] > 100 µM | [13] > 100 µM | [14] > 100 µM | [15] > 100 µM | [16] > 100 µM | [17] > 100 µM | [18] > 100 µM | [19] > 100 µM

Cc1ccc(S(=O)(=O)NC(CN)C(=O)O)cc1 (configuration not stated)
inactive: [1] > 100 µM | [2] > 100 µM | [3] > 100 µM | [4] > 100 µM | [20] > 100 µM | [6] > 100 µM | [7] > 100 µM | [8] > 100 µM | [9] > 100 µM | [11] > 100 µM | [12] > 100 µM | [13] > 100 µM | [14] > 100 µM | [15] > 100 µM | [16] > 100 µM | [17] > 100 µM | [18] > 100 µM | [19] > 100 µM

O=C(N/N=C/c1ccccc1)c1c(-c2cccnc2)cnc2ccccc12
inactive: [1] > 100 µM | [2] > 100 µM | [3] 12 µM | [20] 69.5 µM | [5] 77.1 µM | [6] 33 µM | [7] 29.2 µM | [8] > 100 µM | [9] > 100 µM | [10] > 100 µM | [12] 84.5 µM | [13] > 100 µM | [14] 56.4 µM | [15] > 100 µM | [16] > 100 µM | [17] 87.7 µM | [19] > 100 µM

Source: ChEMBL document CHEMBL1201862, “PubChem BioAssay data set” (2004)
